The numbers were not newly measured in patent US20160074480A1, “INNOVATIVE METHODS OF TREATMENTING TUBERCULOSIS” (priority 2015, published 2016), which cites them from elsewhere.

Read-outs that look alike come from different tables or passages of the source.

The conditions of data set [1]: in vivo; cited from earlier work.
For data set [2] the following is noted: cited from earlier work.
For data set [3] the following is noted: cited from earlier work. This is another data set of the same source.
The subject of data set [4] is tuberculosis infection. To be noted: cited from earlier work; for effect on tuberculosis infection: alone at 20 mg/kg per day; for TB lesion in the spleen compared with pyrazinamide alone / bacteria in the lungs compared with pyrazinamide alone: simultaneous administration with pyrazinamide.
The subject of data set [5] is tuberculosis bacteria. To be noted: treated for 3 days, versus untreated sample; cited from earlier work.
Data set [6] deals with TB bacteria. The following applies: cited from earlier work.
In data set [7] the target is TB proteasome (Mycobacterium tuberculosis, UniProt P9WHT9). To be noted: Lin et al 2009; cited from earlier work.
Chain of TB proteasome (P9WHT9 58-291): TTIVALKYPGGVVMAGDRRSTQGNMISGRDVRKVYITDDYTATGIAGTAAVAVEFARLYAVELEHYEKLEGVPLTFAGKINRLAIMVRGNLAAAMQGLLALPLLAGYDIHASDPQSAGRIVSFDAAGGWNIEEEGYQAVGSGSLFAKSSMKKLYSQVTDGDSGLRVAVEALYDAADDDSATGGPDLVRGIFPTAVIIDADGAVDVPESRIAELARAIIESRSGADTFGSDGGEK
Chain of TB proteasome (P9WHU1 whole entry partner): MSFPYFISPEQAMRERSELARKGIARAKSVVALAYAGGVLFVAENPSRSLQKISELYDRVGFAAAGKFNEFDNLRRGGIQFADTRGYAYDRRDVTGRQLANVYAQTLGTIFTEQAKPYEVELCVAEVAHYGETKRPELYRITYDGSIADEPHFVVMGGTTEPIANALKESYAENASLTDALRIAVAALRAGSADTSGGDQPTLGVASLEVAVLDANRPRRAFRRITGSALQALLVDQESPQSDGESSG
Data set [8] concerns TB bacteria. The following applies: cited from earlier work. The source holds these as a separate data set.
The test system of data set [9] is monkey and human cells. To be noted: cited from earlier work.
The test system of data set [10] is M. tuberculosis. The following applies: cited from earlier work.
[11] abbreviates: 150 mg/kg per day, one month of treatment.

For the molecule `CC[C@@H](CO)NCCN[C@@H](CC)CO` [Ethambutol], the “adverse effects stated in the text” value in [1] was “risk of developing optic neuritis”.
Consider `CCc1cc(C(N)=S)ccn1` [Ethionamide, 2-ethylthioiso-nicotinamide], for which, in data set [1], the “adverse effects stated in the text” value was “neurotoxicity and fatal hepatotoxicity”.
Consider `CO[C@H]1/C=C/O[C@@]2(C)Oc3c(C)c(O)c4c(O)c(c(/C=N/N5CCN(C)CC5)c(O)c4c3C2=O)NC(=O)/C(C)=C\C=C\[C@H](C)[C@H](O)[C@@H](C)[C@@H](O)[C@@H](C)[C@H](OC(C)=O)[C@@H]1C` [Rifampin, Rifampicin], for which the “Plasma Concentrations (mean±standard deviation)” value in [2] (IV 300 mg, 30 min) was 8900 ± 2900 ng/mL; in data set [2] (IV 300 mg, 1 hr to 2 hr), 4900 ± 1300 ng/mL; in data set [2] (IV 300 mg, 4 hr), 2500 ± 1000 ng/mL; in [2] (IV 300 mg, 8 hr) it was 1000 ± 600 ng/mL; in [2] (IV 300 mg, 12 hr), under 400 ng/mL; in data set [2] (IV 600 mg, 30 min) it was 17400 ± 5100 ng/mL. The “Plasma Concentrations (mean±standard deviation)” value in data set [2] (IV 600 mg, 1 hr to 2 hr) is 11700 ± 2800 ng/mL; in data set [2] (IV 600 mg, 4 hr), 6400 ± 1700 ng/mL; in data set [2] (IV 600 mg, 8 hr), 3500 ± 1400 ng/mL; in data set [2] (IV 600 mg, 12 hr), 1200 ng/mL. For the same molecule, the “ADVERSE EVENT/CONTRAINDICATION” value in data set [1] is reported as “Hepatitis, GI reactions”. Besides, the “concentration of the drug in the blood plasma” value in data set [3] (after increasing the dose) is “higher than expected”. For the same molecule, the adverse effects entry in data set [3] (increased dose versus standard dose) is reported as “did not experience adverse effects”.
As to `CC(=O)Nc1ccc(/C=N/NC(N)=S)cc1` [Thiacetazone], in data set [1], the “ADVERSE EVENT/CONTRAINDICATION” value is “Severe skin rash among HIV +ve (not recommended)”.
For `CC(=O)Oc1ccccc1C(=O)O` [aspirin, Acetylsalicylic acid], in data set [4], the “effect on tuberculosis infection” value is reported as “little effect”, the “TB lesion in the spleen compared with pyrazinamide alone” value is given as “further decrease” and the “bacteria in the lungs compared with pyrazinamide alone” value was “statistically significant fewer bacteria”.
In the case of `N[C@@H](CS)C(=O)O` [cysteine], the “intracellular levels of ferrous ions” value in [5] is given as “up to ten times higher”.
Take `CC(C)Cc1ccc(C(C)C(=O)O)cc1` (stereo not shown) [ibuprofen]: in [4], the “effect on tuberculosis infection” value was “little effect”, the “TB lesion in the spleen compared with pyrazinamide alone” value was “further decrease” and the “bacteria in the lungs compared with pyrazinamide alone” value is recorded as “lower unit counts”. The “number of TB bacteria detected in the organs” value in data set [6] (mouse, in vivo) is given as “reduced the number of TB bacteria detected in the organs”. For the same molecule, the survival entry in [6] (versus mice not treated with ibuprofen) is listed as “lived longer”.
Turning to `NC(=O)c1cnccn1` [pyrazinamide, Pyrazinamide], in [4] (setting [11]), the “reduction in the lung compared with the control” value is listed as “about 1.5 log10 cfu” and the “reduction in the spleen compared with the control” value is on record as about 2 log10 cfu. Besides, the “ADVERSE EVENT/CONTRAINDICATION” value in [1] is reported as “Hepatitis”.
Consider oxathiazol-2-one, for which the “inhibition of the TB proteasome relative to the human proteasome” value in data set [7] is recorded as “about 1,000 times”. The “effect on TB bacteria” value in [8] was “killed the TB bacteria”. The “harm to mammalian cells” value in [9] was “did not appear to harm mammalian cells”.

B1: IFN-Y^− 1b: recombinant interferon gamma 1b, given nebulized (protein, UniProt P01579 24-161, looked up)
Interferon gamma: QDPYVKEAENLKKYFNAGHSDVADNGTLFLGILKNWKEESDRKIMQSQIVSFYFKLFKNFKDDQSIQKSVETIKEDMNVKFFNSNKKKRDDFEKLTNYSVTDLNVQRKAIHELIQVMAELSPAAKTGKRKRSQMLFRG
As for B1, in data set [10] (10 TB patients, one month of nebulized therapy), the IFN gamma signaling entry was “enhanced IFN-Y^− signaling”. Further, the “clearance of M. tuberculosis bacteria from the sputum” value in data set [10] (nebulized, added to DOTS, randomized controlled trial) is “more rapid clearance”. In addition, the sputum result in data set [10] (open-label, nebulized, 5 patients with MDR-TB, after 1 month) was “clearing of the sputum”.
